Here are results for 19 compounds from patent US20250092033A1, “HETEROAROMATIC NITROGEN-OXIDE COMPOUND, PREPARATION METHOD THEREFOR, AND USE THEREOF” (BEIJING AVISTONE BIOTECHNOLOGY CO., LTD., priority 2021, published 2025).

Assay [1] relates to H1993 cell line. Description: Cell proliferation inhibition experiment (CellTiter-Glo), H1993. It counts as cell-based. The note with it: Homo sapiens, NCI-H1993, CTG, 72 h. Here is the method: (§1) CellTiter-Glo™ live cell detection kit adopts luciferase as the detection substance, and the luciferase needs the participation of ATP in the luminescence process. CellTiter-Glo™ reagent was added into the cell culture medium and the luminescence value was measured. The light signal is in direct proportion to the amount of ATP in the system, ATP is in direct correlation with number of living cells. Therefore, the proliferation of cells can be detected by detecting the content of ATP with CellTiter-Glo kit.
(§2) In the experiment, the proliferation inhibition effect of the prepared compounds on tumor cell lines Hs746T, EBC-1 and H1993 was measured by a celltiter-glo (CTG) method, and 50% inhibition concentration IC50 was calculated.
(§3) The compounds were determined on the selected cells, the solvent control was set and a total of 10 concentrations were detected, 2 replicates per concentration.
(§4) a) Cells in the logarithmic growth phase were harvested and counted by a […]. The cell viability was detected by a trypan blue exclusion method to ensure that the cell viability was over 90%.
(§5) b) The cell concentration was adjusted; 30 μL of cell suspension was added to a 384-well plate respectively.
(§6) c) Cells in a 384-well plate were incubated overnight at 37° C., 5% CO2 and 95% humidity.
(§7) a) 10 times of drug solution was prepared with the highest concentration of 10 mM, 10 concentrations and 3 times dilution, 10 μL of drug solution was added into each well of a 384-well plate inoculated with cells, and three multiple wells were arranged for each drug concentration. DMSO was the blank control.
(§8) b) The cells in the 384-well plate were incubated for a further 72 h at 37° C., 5% CO2 and 95% humidity before CTG analysis.
(§9) a) The CTG reagent was melted and the cell plate was equilibrated to room temperature for 30 min.
(§10) b) An equal volume of CTG solution was added to each well.
(§11) c) Cells were lysed by shaking on an orbital shaker for 5 minutes.
(§12) d) The cell plate was left at room temperature for 20 minutes to stabilize the luminescence signal.
(§13) e) The cold light value was read.
(§14) The data was analyzed by GraphPad Prism 8 software, and the dose-response curve was fitted with nonlinear S-curve regression, and the IC50 value was calculated therefrom.
(§15) Cell viability(%)=(Lumdrugs to be tested-Lumblank control)/(Lumcell control-Lumblank control)×100%.

In assay [2] the test system is Hs746T cell line. Description: Cell proliferation inhibition experiment (CellTiter-Glo), Hs746T. To be noted: Homo sapiens, Hs 746T, CTG, 72 h. Format: cell-based. Here is the method: as §1, §2, §3, §4, §5, §6, §7, §8, §9, §10, §11, §12, §13, §14, §15
Assay [3] deals with T1, MET D1228N (Homo sapiens, UniProt P08581, D1228N).
T1 construct: purchased Signalchem M52-12IG
The experiment in a line: Kinase inhibition experiment (HTRF KinEASE-TK kit), mutant MET D1228N. It counts as biochemical. To be noted: 10 concentrations, 3-fold dilution. Here is the method:
(§16) The activity of the compounds was determined by detecting the residual amount of ATP after reacting with wild-type or mutant MET protein kinase by using an HTRF KinEASE-TK kit. […]
(§17) The compounds were determined on the selected kinase, the solvent control was set and a total of 10 concentrations were detected, diluted 3-fold, 2 replicates per concentration.
(§18) 1 volume of 5× kinase reaction buffer and 4 volumes of water; 5 mM MgCl2; 1 mM DTT; 1 mM MnCl2; or 2500 nm SEB.
(§19) 1) 10 nl or 4 μlof the diluted compound was transferred to each well of the reaction plate (784075 or 264706, Greiner or Thermo) with a pipette, the reaction plate was sealed with a sealing plate, and centrifuged at 1000 for 1 minute.
(§20) 2) 2× MET was prepared from 1× enzyme reaction buffer, 5 μl or 2 μl kinase was added to each well of the reaction plate, the reaction plate was sealed with a sealing plate, centrifuged at 1000 g for 30 seconds and incubated at room temperature for 10 min.
(§21) 3) a mixed solution of 2× TK-substrate-biotin and ATP were prepared from 1× enzyme reaction buffer solution, 5 μl or 2 μl TK-substrate-biotin/ATP of the mixed solution was added into a reaction plate, the reaction plate was sealed with a sealing plate, centrifuged at 1000 g for 30 seconds and reacted for 50 minutes or 10 minutes at room temperature.
(§22) 4) a mixed solution of 4× or 2× Sa-XL 665 and TK-antibody-Cryptate were prepared from HTRF detection buffer, 5 or 10 μl of the mixed solution of Sa-XL 665 and TK-antibody-Cryptate was added into each well, centrifuged at 1000 g for 30 seconds, and reacted at room temperature for 1 h.
(§23) 5) the fluorescence signals at 615 nm (cryptate) and 665 nm (XL665) were read with Envision 2104 or TECAN.
(§24) The data was analyzed using GraphPad Prism 6.0 or 7 software, and the dose-response curve was fitted with nonlinear S-curve regression, and the IC50 value was calculated therefrom.
(§25) Enzyme Inhibition Percent (%)=100-(Signalmpd-SignalAve_PC)/(SignalAve_VC-SignalAve_PC)×100

Assay [4] addresses T2, wild type (WT) MET kinase (Homo sapiens, UniProt P08581).
T2 construct: purchased Carna 08-151
The experiment in a line: Kinase inhibition experiment (HTRF KinEASE-TK kit), wild-type MET. It counts as biochemical. The note with it: 10 concentrations, 3-fold dilution. Here is the method: as §16, §17, §18, §19, §20, §21, §22, §23, §24, §25

Assay [5] addresses T3, MET F1200I (Homo sapiens, UniProt P08581, F1200I).
T3 construct: purchased Signalchem M52-12GG/Y767-2
Description: Kinase inhibition experiment (HTRF KinEASE-TK kit), mutant MET F1200I. Format: biochemical. To be noted: 10 concentrations, 3-fold dilution. As for the experimental part: as §16, §17, §18, §19, §20, §21, §22, §23, §24, §25

Assay [6] has as its system EBC-1 cell line. Description: Cell proliferation inhibition experiment (CellTiter-Glo), EBC-1. Format: cell-based. The note with it: Homo sapiens, CTG, 72 h. As for the experimental part:
as §1, §2, §3, §4, §5, §6, §7, §8, §9, §10, §11, §12, §13, §14, §15

T1 sequence (P08581 25-1390 D1228N): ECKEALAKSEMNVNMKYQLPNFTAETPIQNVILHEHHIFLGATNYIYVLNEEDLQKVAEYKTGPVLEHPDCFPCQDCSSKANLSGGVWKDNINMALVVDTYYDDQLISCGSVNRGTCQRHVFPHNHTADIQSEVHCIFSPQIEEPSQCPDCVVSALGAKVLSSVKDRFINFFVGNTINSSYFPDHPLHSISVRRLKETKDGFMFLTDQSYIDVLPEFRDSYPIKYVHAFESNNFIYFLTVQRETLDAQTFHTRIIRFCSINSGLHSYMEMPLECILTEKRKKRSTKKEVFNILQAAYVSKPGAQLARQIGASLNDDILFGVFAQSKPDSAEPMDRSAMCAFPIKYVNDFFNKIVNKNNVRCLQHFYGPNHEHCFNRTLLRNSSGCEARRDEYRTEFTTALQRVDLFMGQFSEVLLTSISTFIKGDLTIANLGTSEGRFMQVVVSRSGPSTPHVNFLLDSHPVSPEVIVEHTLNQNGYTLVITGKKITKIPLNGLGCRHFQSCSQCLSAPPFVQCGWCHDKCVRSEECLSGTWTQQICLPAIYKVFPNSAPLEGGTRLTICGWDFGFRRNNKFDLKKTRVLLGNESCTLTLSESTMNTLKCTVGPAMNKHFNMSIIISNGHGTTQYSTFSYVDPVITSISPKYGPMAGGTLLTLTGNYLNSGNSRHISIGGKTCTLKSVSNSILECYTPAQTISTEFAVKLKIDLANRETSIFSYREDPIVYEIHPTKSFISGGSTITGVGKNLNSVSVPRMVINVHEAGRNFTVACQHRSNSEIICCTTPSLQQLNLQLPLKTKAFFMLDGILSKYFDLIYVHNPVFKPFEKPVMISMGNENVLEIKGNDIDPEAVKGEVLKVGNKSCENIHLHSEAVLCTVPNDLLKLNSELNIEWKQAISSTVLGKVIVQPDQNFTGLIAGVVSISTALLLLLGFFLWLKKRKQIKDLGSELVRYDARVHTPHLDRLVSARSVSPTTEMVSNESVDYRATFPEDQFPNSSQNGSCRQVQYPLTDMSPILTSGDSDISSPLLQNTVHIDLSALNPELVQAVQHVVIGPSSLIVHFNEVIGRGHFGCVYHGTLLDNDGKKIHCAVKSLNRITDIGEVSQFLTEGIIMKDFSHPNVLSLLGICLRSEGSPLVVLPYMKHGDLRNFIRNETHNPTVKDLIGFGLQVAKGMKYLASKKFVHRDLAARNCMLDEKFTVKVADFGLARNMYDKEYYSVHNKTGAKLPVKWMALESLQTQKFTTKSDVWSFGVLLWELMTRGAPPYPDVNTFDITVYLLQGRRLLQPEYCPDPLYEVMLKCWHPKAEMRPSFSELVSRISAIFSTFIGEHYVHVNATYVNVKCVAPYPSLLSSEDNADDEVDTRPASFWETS
T2 sequence (P08581 25-1390): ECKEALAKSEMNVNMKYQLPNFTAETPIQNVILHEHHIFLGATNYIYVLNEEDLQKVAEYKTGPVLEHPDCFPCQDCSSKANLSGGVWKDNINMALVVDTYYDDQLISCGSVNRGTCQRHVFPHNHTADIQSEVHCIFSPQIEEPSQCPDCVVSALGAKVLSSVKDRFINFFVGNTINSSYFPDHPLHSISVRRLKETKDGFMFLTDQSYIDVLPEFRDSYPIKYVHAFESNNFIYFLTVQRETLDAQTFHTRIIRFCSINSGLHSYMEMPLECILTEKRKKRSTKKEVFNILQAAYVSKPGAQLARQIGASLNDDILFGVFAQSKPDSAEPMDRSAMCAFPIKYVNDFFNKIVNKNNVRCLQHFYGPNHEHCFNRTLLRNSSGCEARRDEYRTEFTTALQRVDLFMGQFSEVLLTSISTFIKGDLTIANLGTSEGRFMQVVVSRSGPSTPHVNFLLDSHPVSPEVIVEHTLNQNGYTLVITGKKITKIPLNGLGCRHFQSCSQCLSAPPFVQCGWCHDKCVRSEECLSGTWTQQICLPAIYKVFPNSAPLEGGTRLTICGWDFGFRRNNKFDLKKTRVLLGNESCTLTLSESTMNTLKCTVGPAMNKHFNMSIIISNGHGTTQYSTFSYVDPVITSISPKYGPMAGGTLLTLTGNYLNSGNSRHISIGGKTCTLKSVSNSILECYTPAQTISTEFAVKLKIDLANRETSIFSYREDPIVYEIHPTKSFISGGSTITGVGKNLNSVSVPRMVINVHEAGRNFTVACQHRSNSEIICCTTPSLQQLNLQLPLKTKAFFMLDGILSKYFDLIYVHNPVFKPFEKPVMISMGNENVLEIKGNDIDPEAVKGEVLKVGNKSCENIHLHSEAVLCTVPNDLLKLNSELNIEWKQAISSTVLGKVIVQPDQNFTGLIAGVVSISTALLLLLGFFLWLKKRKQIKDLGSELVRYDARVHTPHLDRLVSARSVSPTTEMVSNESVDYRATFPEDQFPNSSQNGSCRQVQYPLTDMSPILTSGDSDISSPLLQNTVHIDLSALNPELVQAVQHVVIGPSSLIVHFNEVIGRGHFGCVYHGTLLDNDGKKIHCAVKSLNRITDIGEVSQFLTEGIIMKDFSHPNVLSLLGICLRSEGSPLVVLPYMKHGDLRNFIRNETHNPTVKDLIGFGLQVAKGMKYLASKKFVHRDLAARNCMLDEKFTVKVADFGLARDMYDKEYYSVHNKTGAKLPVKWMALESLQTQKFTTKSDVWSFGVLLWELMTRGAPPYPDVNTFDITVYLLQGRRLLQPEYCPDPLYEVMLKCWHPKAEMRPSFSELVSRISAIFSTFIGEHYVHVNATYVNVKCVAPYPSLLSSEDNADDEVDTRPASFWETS
T3 sequence (P08581 25-1390 F1200I): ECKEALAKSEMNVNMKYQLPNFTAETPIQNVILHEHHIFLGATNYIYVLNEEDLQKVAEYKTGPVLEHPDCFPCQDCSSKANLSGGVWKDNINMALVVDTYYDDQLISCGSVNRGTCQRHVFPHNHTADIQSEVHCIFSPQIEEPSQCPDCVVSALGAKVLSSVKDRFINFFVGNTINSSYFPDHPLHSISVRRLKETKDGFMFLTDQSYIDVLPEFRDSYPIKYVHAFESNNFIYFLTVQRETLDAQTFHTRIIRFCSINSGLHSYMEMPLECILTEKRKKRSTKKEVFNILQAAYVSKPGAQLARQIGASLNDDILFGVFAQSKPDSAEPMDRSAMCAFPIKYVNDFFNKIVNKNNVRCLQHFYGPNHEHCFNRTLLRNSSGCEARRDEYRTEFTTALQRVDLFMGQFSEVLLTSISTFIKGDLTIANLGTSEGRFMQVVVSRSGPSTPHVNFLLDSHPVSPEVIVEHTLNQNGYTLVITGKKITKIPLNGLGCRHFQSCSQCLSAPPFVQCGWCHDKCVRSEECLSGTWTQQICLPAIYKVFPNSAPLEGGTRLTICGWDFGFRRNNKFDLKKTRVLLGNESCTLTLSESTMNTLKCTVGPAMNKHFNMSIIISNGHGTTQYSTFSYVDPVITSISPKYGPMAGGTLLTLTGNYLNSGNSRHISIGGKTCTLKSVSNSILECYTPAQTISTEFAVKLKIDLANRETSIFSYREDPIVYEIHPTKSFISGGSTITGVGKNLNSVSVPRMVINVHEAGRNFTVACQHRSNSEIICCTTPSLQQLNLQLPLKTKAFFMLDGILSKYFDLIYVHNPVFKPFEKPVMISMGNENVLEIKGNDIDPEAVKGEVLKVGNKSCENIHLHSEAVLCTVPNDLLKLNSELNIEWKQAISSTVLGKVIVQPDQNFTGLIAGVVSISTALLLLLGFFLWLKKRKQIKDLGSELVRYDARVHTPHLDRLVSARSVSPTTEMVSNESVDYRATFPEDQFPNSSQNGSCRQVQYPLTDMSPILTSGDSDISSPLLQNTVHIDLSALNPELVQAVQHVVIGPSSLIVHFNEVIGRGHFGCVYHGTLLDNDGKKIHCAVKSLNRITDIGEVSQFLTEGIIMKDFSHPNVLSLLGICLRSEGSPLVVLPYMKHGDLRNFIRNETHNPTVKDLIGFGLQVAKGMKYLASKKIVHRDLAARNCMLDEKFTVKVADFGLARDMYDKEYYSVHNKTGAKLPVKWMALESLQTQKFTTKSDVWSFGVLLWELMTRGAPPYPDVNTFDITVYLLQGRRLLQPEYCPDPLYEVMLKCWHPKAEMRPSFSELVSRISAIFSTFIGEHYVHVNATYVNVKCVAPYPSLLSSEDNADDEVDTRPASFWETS

Take `C[C@H](CO)Nc1n[nH]c2nccc(Oc3ccc(NC(=O)c4cccc(-c5ccc(F)cc5)[n+]4[O-])cc3F)c12` [Final Product 2, (R)-2-((3-fluoro-4-((3-((1-hydroxypropan-2-yl)amino)-1H-pyrazolo[3,4-b]pyridin-4-yl)oxy)phenyl)carbamoyl)-6-(4-fluorophenyl)pyridine 1-oxide]: the IC50 in assay [1] is 31.8 nM; in assay [2], 8.5 nM; in assay [3], 18 nM; in assay [4], 0.9 nM; in assay [5] it was 3 nM; in assay [6], 12.6 nM.

For the compound `CCC(CO)Nc1n[nH]c2nccc(Oc3ccc(NC(=O)c4cccc(-c5ccc(F)cc5)[n+]4[O-])cc3F)c12` (centres unmarked) [Final product 4], the IC50 in assay [1] worked out at 54.9 nM; in assay [2], 12.6 nM; in assay [3], 15.7 nM; in assay [4], 2.2 nM; in assay [5], 10 nM; in assay [6], 14.4 nM.

For `CC(C)(O)CNc1n[nH]c2nccc(Oc3ccc(NC(=O)c4cccc(-c5ccc(F)cc5)[n+]4[O-])cc3F)c12` [Final product 10], the IC50 in assay [2] was found to be 29.1 nM; in assay [3], 13.6 nM; in assay [4], 4.7 nM; in assay [5], 30.9 nM; in assay [6], 52.5 nM.

Take `O=C(Nc1ccc(Oc2ccnc3[nH]nc(NCC(O)CO)c23)c(F)c1)c1cccc(-c2ccc(F)cc2)[n+]1[O-]` (centres unmarked) [Final product 15]: the 50% inhibitory concentration (IC50) in assay [1] is 39.4 nM; in assay [2], 21.6 nM; in assay [3], 20.1 nM; in assay [4] it was 1.3 nM; in assay [5] it was 6.5 nM.

Turning to `O=C(Nc1ccc(Oc2ccnc3[nH]nc(NC4COCC4O)c23)c(F)c1)c1cccc(-c2ccc(F)cc2)[n+]1[O-]` (centres unmarked) [Final product 24], the IC50 in assay [2] worked out at 14.5 nM; in assay [3] it was 29.5 nM; in assay [4] it was 2.5 nM; in assay [5], 9.5 nM; in assay [6], 20.1 nM.

Regarding `O=C(Nc1ccc(Oc2ccnc3[nH]nc(N4CCC(CO)CC4)c23)c(F)c1)c1cccc(-c2ccc(F)cc2)[n+]1[O-]` [Final product 28], the IC50 in assay [2] is 14 nM; in assay [3] it was 34.5 nM; in assay [4] it was 3 nM; in assay [5], 9.6 nM; in assay [6], 17.1 nM.

Turning to `O=C(Nc1ccc(Oc2ccnc3[nH]nc(N4CCC[C@@H](CO)C4)c23)c(F)c1)c1cccc(-c2ccc(F)cc2)[n+]1[O-]` [Final product 32], the IC50 came to 30.6 nM in assay [1], 16.7 nM in assay [3], 4.4 nM in assay [4] and 10.1 nM in assay [5].

For `O=C(Nc1ccc(Oc2ccnc3[nH]nc(N4CC5(CC(O)C5)C4)c23)c(F)c1)c1cccc(-c2ccc(F)cc2)[n+]1[O-]` [Final product 36], the IC50 in assay [2] amounted to 9.9 nM; in assay [3], 25.1 nM; in assay [4] it was 4 nM; in assay [5], 6.7 nM; in assay [6] it was 15.1 nM.

Turning to `C[C@H](CO)Nc1n[nH]c2nccc(Oc3ccc(NC(=O)c4cccc(-c5ccc(F)cc5F)[n+]4[O-])cc3F)c12` [Final product 44], the IC50 in assay [1] was found to be 85.3 nM; in assay [2] it was 15.2 nM; in assay [3], 14.8 nM; in assay [4] it was 2.5 nM; in assay [5], 6.7 nM; in assay [6], 21.3 nM.

As for `C[C@H](CO)Nc1n[nH]c2nccc(Oc3ccc(NC(=O)c4ccc(F)c(-c5ccc(F)cc5)[n+]4[O-])cc3F)c12` [Final product 53], the IC50 is 29 nM in assay [1]; 14.6 nM in assay [2]; 4.8 nM in assay [3]; 2 nM in assay [4]; 8.7 nM in assay [5]; 15.7 nM in assay [6].

As to `C[C@H](CO)Nc1n[nH]c2nccc(Oc3ccc(NC(=O)c4ccc(Cl)c(-c5ccc(F)cc5)[n+]4[O-])cc3F)c12` [Final product 57], the IC50 stood at 59.5 nM in assay [1]; 11.4 nM in assay [2]; 28.5 nM in assay [3]; 1.6 nM in assay [4]; 2.8 nM in assay [5]; 19.6 nM in assay [6].

With `CC[C@H](CO)Nc1n[nH]c2nccc(Oc3ccc(NC(=O)c4ccc(Cl)c(-c5ccc(F)cc5)[n+]4[O-])cc3F)c12` [Final product 58], the IC50 in assay [1] worked out at 16.4 nM; in assay [2] it was 12.8 nM; in assay [3], 15.9 nM; in assay [4] it was 4.9 nM; in assay [5] it was 16.1 nM; in assay [6] it was 13.2 nM.

In the case of `O=C(Nc1ccc(Oc2ccnc3[nH]nc(N[C@@H]4CCC(O)C4)c23)c(F)c1)c1ccc(Cl)c(-c2ccc(F)cc2)[n+]1[O-]` (some centres unmarked) [Final product 63], the IC50 worked out at 4.6 nM in assay [2]; 26.6 nM in assay [3]; 4.7 nM in assay [4]; 13.1 nM in assay [5]; 13.4 nM in assay [6].

As for `Cc1ccc(C(=O)Nc2ccc(Oc3ccnc4[nH]nc(NCC5(O)CC5)c34)c(F)c2)[n+]([O-])c1-c1ccc(F)cc1` [Final product 70], the IC50 in assay [1] came out at 12 nM; in assay [2], 24.4 nM; in assay [3], 35.5 nM; in assay [4] it was 6.9 nM.

For `CC(O)C1CN(c2n[nH]c3nccc(Oc4ccc(NC(=O)c5cccc(-c6ccc(F)cc6)[n+]5[O-])cc4Cl)c23)C1` (centres unmarked) [Final product 107], the IC50 in assay [1] turned out to be 76.9 nM; in assay [3], 26.8 nM; in assay [4] it was 1.6 nM; in assay [5], 12.3 nM.

Take `C[C@H](CO)Nc1n[nH]c2nccc(Oc3ccc(NC(=O)c4ccc(Cl)c(-c5ccc(F)cc5)[n+]4[O-])cc3Cl)c12` [Final product 121]: the IC50 in assay [1] came to 42.3 nM; in assay [3], 19 nM; in assay [4], 4.3 nM; in assay [5], 11.4 nM.

`C[C@H](CO)Nc1n[nH]c2nccc(Oc3ccc(NC(=O)c4ccc(OC(F)F)c(-c5ccc(F)cc5)[n+]4[O-])cc3Cl)c12` [Final product 139]: the IC50 in assay [1] was 31.1 nM; in assay [3], 18.5 nM; in assay [4] it was 4.5 nM; in assay [5], 15.3 nM.

`C[C@H](CO)Nc1n[nH]c2nccc(Oc3ccc(NC(=O)c4ccc(Cl)c(-c5ccc(F)cc5)[n+]4[O-])c(F)c3)c12` [Final product 159]: the IC50 in assay [1] was found to be 78.4 nM; in assay [3], 14.8 nM; in assay [4], 3 nM; in assay [5], 2 nM.

As for `O=C(Nc1ccc(Oc2ncnc3ccn(CCCO)c23)c(F)c1)c1cccc(-c2ccc(F)cc2)[n+]1[O-]` [Final product 168, 2-((3-fluoro-4-((5-(3-hydroxypropyl)-5H-pyrrolo[3,2-d]pyrimidin-4-yl)oxy)phenyl)carbamoyl)-6-(4-fluorophenyl)pyridine 1-oxide], the IC50 in assay [2] was 65.4 nM; in assay [3], 13.9 nM; in assay [4] it was 3.8 nM; in assay [5], 9.2 nM; in assay [6], 56.7 nM.
